Assay results taken from PMC6627553, “Cardiac Rhythm and Molecular Docking Studies of Ion Channel Ligands with Cardiotoxicity in Zebrafish” (Cells, 2019).
Entries after “also recorded” stand apart in the source; their conditions may differ. Counter-ions that a name gives are not always drawn. Like-named read-outs stand apart in the source and are kept apart here.

Tests used:
[1] = system: zebrafish embryos aged 72 hpf; assay: End-point screen of ion channel ligand library for cardiac rhythm (ImageJ-based); settings: 10 μM, 30 min incubation
Procedure: Seventy-two hpf larvae were used for this study.
The compounds are diluted with distilled water to make working solutions at 10 µM. For drug treatment, 20 µM of the compound stock was dropped onto the fish mounted with the same volume (around 50 µL) of 3% methylcellulose for a final working concentration of 10 µM. The heart beats from three zebrafish larvae were used for the first round of screening. […] The heart beats from five zebrafish larvae for each compound were recorded for 10 sec at 5 min intervals over a period of 30 min.
For the cardiac rhythm assay, we mounted zebrafish embryos aged at 72 hpf with 3% methylcellulose to reduce their movement, and later applied chemicals from an ion channel ligand library (containing 70 compounds) at 10 μM to measure the changes in cardiac rhythm according to our previous ImageJ-based method [25]. In order to prevent the potential side effects of anesthesia on heart rate or rhythmicity, we used methylcellulose to mount zebrafish larvae for videotaping.
Initially, we used an image-based end-point method to screen the potential effects of an ion channel ligand library on heart beat rhythm alterations. […] In order to screen a potential compound with high cardiotoxicity at a low dose, we performed chemical screening at 10 μM as a starting point. […] A heartbeat that exceeds these ranges is considered abnormal.

[2] = system: zebrafish embryos aged 72 hpf; assay: Chronology method: heart beat recorded at 5 min intervals over 30 min; settings: 10 μM; for Atrium and ventricle rhythmicity pattern after 30 min incubation: compared to control; for Cardiac phenotype by time chronology method: 10 sec recordings at 5 min intervals over 30 min, methylcellulose mounted
Procedure: (§1) Stock concentrations for each compound in the library are 10 mM with 100 µL volume. The compounds are diluted with distilled water to make working solutions at 10 µM. For drug treatment, 20 µM of the compound stock was dropped onto the fish mounted with the same volume (around 50 µL) of 3% methylcellulose for a final working concentration of 10 µM. The heart beats from three zebrafish larvae were used for the first round of screening. […] The heart beats from five zebrafish larvae for each compound were recorded for 10 sec at 5 min intervals over a period of 30 min.
(§2) After drug administration, we video recorded the heart beat for 10 sec at 5 min intervals, over a period of 30 min.

rats = settings: cited from earlier work
[3] = system: zebrafish embryos aged 72 hpf; assay: Dose response experiment for lowest effective dose (LOED), time chronology method; settings: 1 µM and 5 µM
Procedure: Three different doses, 1, 5 and 10 μM, of the tested compounds were given to zebrafish embryos aged 72 hpf, and the heart beat rate and rhythmicity were recorded for comparison by the time chronology method.
(§3) Five zebrafish larvae aged at 72 h post-fertilization (hpf) were used in this assay.

hERG channel = settings: cited from earlier work
[4] = system: zebrafish larvae aged 72 hpf; assay: Washout experiment for heart rate and rhythmicity; settings: washout for 30 min and 1 h
Procedure: as §3

[5] = system: zebrafish embryos aged 72 hpf; settings: in vivo
Procedure: as §1, §2

cardiac K+ channels = settings: cited from earlier work

Row | Structure (SMILES) | Heart rhythm phenotype in first step screening (end-point screen) [1] | Atrium and ventricle rhythmicity pattern after 30 min incubation [2] | Cardiac phenotype by time chronology method [2] | other results
1 | CNc1ccc2oc(C[C@H]3O[C@@]4(CC[C@H]3C)O[C@H]([C@H](C)C(=O)c3ccc[nH]3)[C@H](C)C[C@H]4C)nc2c1C(=O)O [compound 1333, Antibiotic A-23187] | ventricular fibrillation or total heart stop; also recorded: irregular heart rhythmicity | 1:1 rhythm, but the peak was more compact | – | Heart rhythm phenotype in first step screening (end-point screen) ([1]; listed as Antibiotic A-23187): ventricular fibrillation; Increase of heart beat (rats): up to 50%
2 | Fc1ccc(C(c2ccc(F)cc2)N2CCN(C/C=C/c3ccccc3)CC2)cc1 [compound 1345, Flunarizine hydrochloride] | slight slowing of the heartbeat (bradycardia); also recorded: irregular heart rhythmicity | arryhtmia was not shown in the pattern; however, the peak was less compact compared to the control | slowing of heart rate as well as arrhythmia after incubation for 25 and 30 min; also recorded: slowing of the heart as well as arrhythmia after incubation for 25 and 30 min | –
3 | COC(=O)c1c(C)[nH]c(C)c1C(=O)c1ccccc1Cc1ccccc1 [compound 1346, FPL-64176] | ventricular fibrillation or total heart stop; also recorded: irregular heart rhythmicity | arrhythmic beating | arrhythmia | Effect on cardiac rhythmicity at low concentration [3]: did not change; Effect on heart beat rate at low concentration [3]: did not change the heart beat rate; Heart rhythm phenotype in first step screening (end-point screen) ([1]; listed as FPL-64176): heart completely stopped
4 | O=c1[nH]c2ccccc2n1C1CCN(CCCC(c2ccc(F)cc2)c2ccc(F)cc2)CC1 [compound 1360, Pimozide] | ventricular fibrillation or total heart stop; also recorded: irregular heart rhythmicity | arrhythmic, with one peak in the ventricle being followed by two in the atrium | atrioventricular block occurred, subsequently becoming more severe over time | Concentration giving significant inhibition of hERG channel currents (hERG channel; as low as): 3 nM; IC50 (hERG channel; read-out: IC50 of hERG channel currents): 18 nM; Restoration of heart rate after washout [4]: could not be fully restored, even after 1 h of washout treatment; Reversal of arrhythmic effect after washout [4]: unable to fully reverse the arrhythmic effect; Cardiac phenotype by time chronology method [5]: atrioventricular block from 10 min onwards; Reported cardiac adverse effect (cardiac K+ channels): acquired long QT syndrome and ventricle arrhythmia; Reversibility of cardiotoxicity effect (cardiac K+ channels): poorly reversible
5 | O=C1NCN(c2ccccc2)C12CCN(CCCC(c1ccc(F)cc1)c1ccc(F)cc1)CC2 [compound 1377, Fluspirilene] | ventricular fibrillation or total heart stop; also recorded: irregular heart rhythmicity; also recorded: total heart stop | arrhythmic, with one peak of the ventricle being followed by two of the atrium | arrhythmia from 5 min onwards | Heart rhythm phenotype in first step screening (end-point screen) ([1]; listed as fluspirilene): heart completely stopped; Cardiac phenotype by time chronology method ([2]; listed as fluspirilene): arrhythmia occurred from 5 min onwards and became more severe over time
